Assay results from ChEMBL document CHEMBL4368932 (Bioorg Med Chem, 2019).

What was measured:
[1] = target: T1, Phosphatidylinositol 4,5-bisphosphate 3-kinase catalytic subunit delta isoform (Homo sapiens, UniProt O00329); assay: Inhibition of recombinant human PI3Kdelta using PIP2 as substrate after 35 to 40 mins by HTRF assay
T1 sequence (O00329 whole entry): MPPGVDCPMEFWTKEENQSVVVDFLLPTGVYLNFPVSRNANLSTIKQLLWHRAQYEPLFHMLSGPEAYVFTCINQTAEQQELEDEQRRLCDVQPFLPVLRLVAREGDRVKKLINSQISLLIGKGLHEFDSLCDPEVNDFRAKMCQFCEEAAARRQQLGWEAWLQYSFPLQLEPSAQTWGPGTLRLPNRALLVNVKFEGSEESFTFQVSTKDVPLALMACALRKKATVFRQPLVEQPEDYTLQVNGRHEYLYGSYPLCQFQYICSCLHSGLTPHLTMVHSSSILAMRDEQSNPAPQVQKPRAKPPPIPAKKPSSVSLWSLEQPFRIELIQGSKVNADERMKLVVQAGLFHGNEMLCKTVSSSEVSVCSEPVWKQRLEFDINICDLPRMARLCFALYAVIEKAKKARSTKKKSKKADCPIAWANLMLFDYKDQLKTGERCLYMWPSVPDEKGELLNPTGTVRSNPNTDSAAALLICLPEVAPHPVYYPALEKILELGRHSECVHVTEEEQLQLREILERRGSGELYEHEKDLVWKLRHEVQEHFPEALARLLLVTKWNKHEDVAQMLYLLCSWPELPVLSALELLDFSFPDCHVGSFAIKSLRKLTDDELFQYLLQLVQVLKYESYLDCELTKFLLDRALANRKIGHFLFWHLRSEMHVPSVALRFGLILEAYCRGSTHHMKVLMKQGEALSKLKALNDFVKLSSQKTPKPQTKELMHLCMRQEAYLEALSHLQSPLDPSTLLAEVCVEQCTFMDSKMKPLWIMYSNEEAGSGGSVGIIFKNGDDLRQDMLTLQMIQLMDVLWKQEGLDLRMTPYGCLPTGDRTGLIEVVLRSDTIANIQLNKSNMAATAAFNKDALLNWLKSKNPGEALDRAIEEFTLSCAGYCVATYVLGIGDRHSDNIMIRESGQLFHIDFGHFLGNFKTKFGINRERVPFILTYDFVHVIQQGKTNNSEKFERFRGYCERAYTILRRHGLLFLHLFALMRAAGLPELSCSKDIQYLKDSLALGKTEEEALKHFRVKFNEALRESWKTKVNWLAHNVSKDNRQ

[2] = target: Phosphatidylinositol 4,5-bisphosphate 3-kinase catalytic subunit alpha isoform (Homo sapiens, UniProt P42336); assay: Inhibition of human PI3Kalpha using phosphatidyl inositol as substrate after 3 hrs by Kinase-Glo Plus reagent-based luminescence assay
[3] = target: Phosphatidylinositol 4,5-bisphosphate 3-kinase catalytic subunit beta isoform (Homo sapiens, UniProt P42338); assay: Inhibition of recombinant human PI3Kbeta using PIP2 as substrate after 35 to 40 mins by HTRF assay
[4] = target: Phosphatidylinositol 4,5-bisphosphate 3-kinase catalytic subunit gamma isoform (Homo sapiens, UniProt P48736); assay: Inhibition of recombinant human PI3Kgamma using PIP2 as substrate after 35 to 40 mins by HTRF assay
B-cell = assay: Antiproliferative activity against anti-IgM antibody-stimulated BALB/c mouse B cells after 2 days by Alamar Blue reagent-based assay; details: 48 h
[5] = Intrinsic clearance in CD1 mouse liver microsomes at 0.2 uM up to 45 mins in presence of NADPH by LC-MS/MS analysis; type: ADME, Microsome; details: read-out: CLH

Sequence of Phosphatidylinositol 4,5-bisphosphate 3-kinase catalytic subunit alpha isoform (P42336 whole entry, canonical isoform): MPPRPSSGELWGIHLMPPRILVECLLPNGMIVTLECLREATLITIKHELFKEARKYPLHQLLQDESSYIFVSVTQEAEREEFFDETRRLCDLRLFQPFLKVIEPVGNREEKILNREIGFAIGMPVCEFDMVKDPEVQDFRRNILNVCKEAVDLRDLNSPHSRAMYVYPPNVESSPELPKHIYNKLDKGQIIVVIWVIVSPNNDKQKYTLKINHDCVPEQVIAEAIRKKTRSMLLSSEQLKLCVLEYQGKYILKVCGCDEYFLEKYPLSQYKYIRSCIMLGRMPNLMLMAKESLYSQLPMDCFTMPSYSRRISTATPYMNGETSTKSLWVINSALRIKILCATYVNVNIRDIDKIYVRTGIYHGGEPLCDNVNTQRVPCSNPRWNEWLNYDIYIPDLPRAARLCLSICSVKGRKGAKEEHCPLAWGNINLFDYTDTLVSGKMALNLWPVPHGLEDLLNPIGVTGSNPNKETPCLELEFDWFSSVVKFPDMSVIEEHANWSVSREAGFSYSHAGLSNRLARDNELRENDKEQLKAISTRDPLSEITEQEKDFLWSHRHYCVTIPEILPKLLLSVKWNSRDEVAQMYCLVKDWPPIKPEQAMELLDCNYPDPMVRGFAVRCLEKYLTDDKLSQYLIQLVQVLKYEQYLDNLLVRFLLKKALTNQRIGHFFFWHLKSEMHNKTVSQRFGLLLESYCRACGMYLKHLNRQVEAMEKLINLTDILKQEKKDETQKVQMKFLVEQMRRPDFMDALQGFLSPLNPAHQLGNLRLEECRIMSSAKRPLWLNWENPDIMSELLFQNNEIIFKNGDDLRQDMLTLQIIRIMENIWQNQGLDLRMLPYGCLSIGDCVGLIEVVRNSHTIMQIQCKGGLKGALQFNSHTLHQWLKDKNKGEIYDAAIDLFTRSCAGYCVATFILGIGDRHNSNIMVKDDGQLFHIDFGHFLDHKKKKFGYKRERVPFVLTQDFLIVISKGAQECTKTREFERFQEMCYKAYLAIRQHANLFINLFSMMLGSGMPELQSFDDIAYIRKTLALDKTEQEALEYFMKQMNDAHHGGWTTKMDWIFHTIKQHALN
Sequence of Phosphatidylinositol 4,5-bisphosphate 3-kinase catalytic subunit beta isoform (P42338 whole entry, canonical isoform): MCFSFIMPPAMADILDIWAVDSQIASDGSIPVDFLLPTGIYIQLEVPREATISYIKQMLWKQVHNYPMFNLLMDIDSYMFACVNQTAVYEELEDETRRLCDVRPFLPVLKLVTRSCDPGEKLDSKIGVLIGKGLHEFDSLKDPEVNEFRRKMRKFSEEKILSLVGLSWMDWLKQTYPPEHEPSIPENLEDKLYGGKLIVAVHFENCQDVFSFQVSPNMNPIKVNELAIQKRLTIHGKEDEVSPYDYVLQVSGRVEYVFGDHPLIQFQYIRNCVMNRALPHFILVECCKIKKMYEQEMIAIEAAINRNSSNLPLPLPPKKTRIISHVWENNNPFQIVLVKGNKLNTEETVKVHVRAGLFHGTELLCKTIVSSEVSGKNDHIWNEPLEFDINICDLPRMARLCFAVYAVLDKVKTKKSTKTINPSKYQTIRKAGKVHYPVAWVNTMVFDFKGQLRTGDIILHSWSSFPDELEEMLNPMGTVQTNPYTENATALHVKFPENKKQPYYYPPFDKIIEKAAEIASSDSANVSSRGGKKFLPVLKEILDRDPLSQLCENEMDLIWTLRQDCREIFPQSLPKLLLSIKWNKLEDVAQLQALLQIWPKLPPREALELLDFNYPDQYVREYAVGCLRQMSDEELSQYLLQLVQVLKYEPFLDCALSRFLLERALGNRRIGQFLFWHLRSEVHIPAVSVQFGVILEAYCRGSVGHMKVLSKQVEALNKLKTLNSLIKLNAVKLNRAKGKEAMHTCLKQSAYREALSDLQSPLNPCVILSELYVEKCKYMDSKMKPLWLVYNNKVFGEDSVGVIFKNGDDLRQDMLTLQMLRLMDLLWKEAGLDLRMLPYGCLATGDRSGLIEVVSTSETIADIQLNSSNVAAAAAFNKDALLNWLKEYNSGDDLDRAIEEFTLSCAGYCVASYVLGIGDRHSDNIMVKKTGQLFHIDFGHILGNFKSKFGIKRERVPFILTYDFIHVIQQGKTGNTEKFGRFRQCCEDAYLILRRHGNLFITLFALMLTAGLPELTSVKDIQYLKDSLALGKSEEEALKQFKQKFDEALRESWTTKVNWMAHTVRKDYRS
Sequence of Phosphatidylinositol 4,5-bisphosphate 3-kinase catalytic subunit gamma isoform (P48736 whole entry, canonical isoform): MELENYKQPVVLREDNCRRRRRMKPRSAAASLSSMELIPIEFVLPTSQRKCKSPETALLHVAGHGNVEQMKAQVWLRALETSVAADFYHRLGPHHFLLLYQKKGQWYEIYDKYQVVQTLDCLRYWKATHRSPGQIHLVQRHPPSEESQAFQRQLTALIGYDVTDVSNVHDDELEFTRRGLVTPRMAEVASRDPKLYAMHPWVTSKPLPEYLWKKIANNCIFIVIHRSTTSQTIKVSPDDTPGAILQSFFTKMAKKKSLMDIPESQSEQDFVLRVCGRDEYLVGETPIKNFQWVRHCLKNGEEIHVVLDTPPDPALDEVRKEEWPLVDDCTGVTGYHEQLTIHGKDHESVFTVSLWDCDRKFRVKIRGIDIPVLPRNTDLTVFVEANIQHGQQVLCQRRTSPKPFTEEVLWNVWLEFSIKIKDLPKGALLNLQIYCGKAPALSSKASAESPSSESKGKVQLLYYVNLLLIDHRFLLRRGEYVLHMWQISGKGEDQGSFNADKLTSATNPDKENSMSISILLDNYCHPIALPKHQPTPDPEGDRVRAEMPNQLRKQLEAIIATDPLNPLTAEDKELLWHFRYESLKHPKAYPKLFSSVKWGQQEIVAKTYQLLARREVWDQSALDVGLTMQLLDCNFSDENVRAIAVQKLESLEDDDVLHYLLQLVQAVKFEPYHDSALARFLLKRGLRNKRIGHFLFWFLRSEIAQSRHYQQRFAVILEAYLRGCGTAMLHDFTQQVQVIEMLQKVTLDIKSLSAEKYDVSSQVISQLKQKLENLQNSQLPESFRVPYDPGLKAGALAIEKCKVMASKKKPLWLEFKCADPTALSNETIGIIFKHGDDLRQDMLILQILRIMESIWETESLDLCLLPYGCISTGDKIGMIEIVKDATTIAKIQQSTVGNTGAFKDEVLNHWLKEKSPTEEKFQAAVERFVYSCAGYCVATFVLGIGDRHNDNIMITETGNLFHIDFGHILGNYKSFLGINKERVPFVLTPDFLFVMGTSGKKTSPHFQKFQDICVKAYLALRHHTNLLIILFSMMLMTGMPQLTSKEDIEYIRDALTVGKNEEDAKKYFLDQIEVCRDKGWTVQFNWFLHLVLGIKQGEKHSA

## CCOC(=O)c1cccc(Nc2ncnc3c2CN(c2cnc(OC)c(C)c2)CC3)c1
[1]
  IC50: 120 nM

## COc1ncc(N2CCc3ncnc(Nc4cccc(C(=O)NC5CCOCC5)c4)c3C2)cc1C
[1]
  IC50: 49 nM

## CCN1CCC(Nc2cc(-c3ncnc4c3CN(c3cnc(OC)c(C)c3)CC4)ccn2)CC1
[1]
  IC50: 8.5 nM
[2]
  IC50: 4600 nM
[3]
  IC50: > 10000 nM
[4]
  IC50: > 10000 nM
B-cell
  IC50: 4.8 nM
[5]
  CLint scaled at 0.2 µM: 160 mL/min/kg

## COc1ncc(N2CCc3ncnc(-c4cnn(C5CCOCC5)c4)c3C2)cc1C
[1]
  IC50: 180 nM
[2]
  IC50: 2600 nM

## COc1ncc(N2CCc3ncnc(-c4cnn(CC5CCOCC5)c4)c3C2)cc1C
[1]
  IC50: 110 nM
[2]
  IC50: 4900 nM

## COc1ncc(N2CCc3ncnc(-c4ccc(NCC5CCOCC5)nc4)c3C2)cc1C
[1]
  IC50: 42 nM
[2]
  IC50: 6100 nM

## COc1ncc(N2CCc3ncnc(-c4ccc(NC5CCOCC5)nc4)c3C2)cc1C
[1]
  IC50: 150 nM

## COc1ncc(N2CCc3ncnc(Nc4cccc(C(=O)N5CCOCC5)c4)c3C2)cc1C
[1]
  IC50: 47 nM

## COc1ncc(N2CCc3ncnc(-c4ccnc(OC5CCN(C)CC5)c4)c3C2)cc1C
[1]
  IC50: 45 nM

## COc1ncc(N2CCc3ncnc(Nc4cccc(C)c4)c3C2)cc1C
[1]
  IC50: 220 nM
